Earlier results as cited in patent publication US20120288569A1 (priority 2003, published 2012).

Columns and labels:
[1] = tested on: calcification in aortas and kidneys of rats; details: rats treated with large amount of vitamin D3

## O=P(O)(O)OP(=O)(O)O [PPi, pyrophosphate]
PPi at 2 μm/L concentration
  uptake by the apatite crystals: rapidly and almost completely taken up
In vitro
  concentration that binds strongly to crystals of hydroxyapatite, inhibiting further precipitation of calcium phosphate: ≥ 0.1 µM
[1]
  effect on calcification in aortas and kidneys: inhibits calcification
